Converted amounts (≈) assume the structure as drawn. Read-outs that look alike come from different tables or passages of the source.
Key:
[1] = tested on: Staphylococcus haemolyticus 16568; experiment: MIC, standard microdilution method; conditions: Staphylococcus haemolyticus, 16568, 24 h
[2] = tested on: Clostridium perfringens CCM 4435; experiment: microbe, parasite or virus in culture; assay type: cell-based; conditions: CCM4435
[3] = tested on: Salmonella typhimurium TA98 and TA100; experiment: Ames test for genotoxicity (Salmonella/microsome reversion assay, without S9); assay type: cell-based; conditions: at relevant concentrations, without metabolic activation
Procedure: The Salmonella/microsome reversion assay was conducted using the plate incorporation procedure described by Marona and Ames. The Ames test was performed utilizing two different bacterial strains of Salmonella typhimurium: strain TA98 for frame-shift mutations and strain TA100 for base-pair substitution. All strains were maintained and stored according to the standard procedures. All samples were tested without metabolic activation (S9) to detect direct mutagenic compounds. The test was performed with plate incorporation method in duplicate at the increasing concentrations. The plates were incubated at 37°C for 72 h in the dark. The number of his+ revertants was estimated with the counter. Results were expressed as mutation ratios (Φ) calculated as the number of colonies on test plates/number of colonies on solvent control plates. A compound is considered mutagenic when Φ is more than 2 and a dose–response effect is evident.

[4] = Carboxyfluorescein leakage assay, LUV from bacterial lipids; assay type: biochemical, Bacillus subtilis; conditions: for Hill coefficient n, rapid initial phase of CF release: LPPO 0.8 mg/L, 60 μM phospholipid, 25°C
Procedure: Bacterial phospholipids were extracted with hexane/2-propanol (3:2, v/v) mixture from B. subtilis 168 cell biomass (2000 ml of culture in LB medium) harvested in exponential phase by rapid filtration (Synpor no. 5 filter, Pragochema, Czech Republic). Phospholipids from human erythrocytes (0.5 ml, volunteer blood donor) were extracted with chloroform/2-propanol mixture (7:11, v/v) after hemolysis using distilled water. After evaporation of the solvent in vaccuo at 40°C, the phospholipids were dissolved in chloroform, filtered through glass fiber filters (Whatman) and concentrated under a stream of nitrogen. The lipid samples were stored at -80°C and used for liposome preparation.
Vesicles to be used in the carboxyfluorescein (CF) leakage assay were prepared by mixing the appropriate amount of lipids (1 mg/ml) with chloroform/methanol 2:1 (v/v). The solvent was subsequently evaporated under a nitrogen gas stream obtaining a thin film on the walls of a glass tube. The hydration procedure in a buffer containing 50 mM CF, 5 mM HEPES pH 7.4 lasted for 60 min at 40°C, interrupted by thorough vortexing to form multilamellar vesicles. Large unilamellar vesicles (LUV) were prepared by repeated extrusion of the multilamellar vesicles through 100 nm polycarbonate filters (Avestin) using the LiposoFast Basic apparatus (Avestin, Canada). Vesicles were separated from nonencapsulated dye by gel filtration on Sephadex G-50 using 100 mM NaCl, 0.5 mM Na2EDTA and 5 mM HEPES, pH 7.4 as elution buffer. Fractions with the highest content of the entrapped dye were pooled and dissolved in the same buffer to the final phospholipid concentration of 60 μM.
The release of vesicle contents after adding LPPO solutions was evaluated by the increased fluorescence intensity of CF released into the milieu which we express as the percentage of leakage. […] Maximum release of CF fluorescence (F max) was induced by lysing the vesicles with 0.1% (v/v) Triton X-100. Fluorescence intensity was monitored in time (excitation at 480 nm, emission at 515 nm) at 25°C using FluoroMax-3 (Jobin Yvon, Horriba) spectrofluorometer. The following equation was used to calculate the percent of CF leakage: % CF leakage = [(F–F 0)/(F max−F 0)] × 100, where F is the actual fluorescence intensity and F 0 is the fluorescence intensity before addition of the permeabilizing agent. Using Fityk software the time courses of liposome lysis were fitted by a function: α(1-exp(-t/τ))^n, where t is the time, α is the amplitude of the effect, τ is the time constant of the effect, and n is Hill coefficient (S3 Fig).

[5] = tested on: Peptostreptococcus anaerobius; experiment: MIC against anaerobic bacteria, tube dilution method; assay type: cell-based; conditions: anaerobic conditions, 35°C, 48 h (confirmed 72 h)
Bacillus subtilis = experiment: MIC, standard microdilution method; conditions: Bacillus subtilis

SMILES | MIC [1] | MIC [2] | genotoxicity (mutagenic potential) [3] | Hill coefficient n, rapid initial phase of CF release [4] | fit Hill coefficient n, initial phase f(x) ([4]; S3 Fig data set) | fit Hill coefficient n, latter phase g(x) ([4]; S3 Fig data set) | fit amplitude α, initial phase f(x) of liposome lysis ([4]; S3 Fig data set) | fit amplitude α, latter phase g(x) of liposome lysis ([4]; S3 Fig data set) | fit time constant τ, initial phase f(x) ([4]; S3 Fig data set) | fit time constant τ, latter phase g(x) ([4]; S3 Fig data set) | MIC [5] | MIC (Bacillus subtilis; 24 h) | MIC (Bacillus subtilis; read-out: MIC against wt B. subtilis, B. subtilis 168, as stated for the resistance selection experiment) | MIC (Bacillus subtilis; 24 h, 35°C, brain heart infusion broth)
CCCCCCCCCCCCCCCCOP(=O)(CCN1C[C@@H](O)[C@H](O)C1)OC[C@H]1O[C@@H](n2ccc(=O)[nH]c2=O)[C@H](O)[C@@H]1O (stereo partly shown) [DR5026] | 50 µg/mL (≈ 75.6 µM) | 12.5 µg/mL (≈ 18.9 µM) | Neither of the two compounds was found to be genotoxic | 0.5 ± 0.2 | 0.6 | 3.1 | 29.7 | 76.4 | 175.5 s | 28.2 s | 1.56 µg/mL (≈ 2.36 µM) | 3.12 µg/mL (≈ 4.72 µM) | ~3 µg/mL (≈ 4.53 µM) | 
CCCCCCCCCCCCCCCCOCCCOP(=O)(CCN1C[C@@H](O)[C@H](O)C1)OC[C@H]1O[C@@H](n2ccc(=O)[nH]c2=O)[C@H](O)[C@@H]1O (stereo partly shown) [DR5047] | > 200 µg/mL | 12.5 µg/mL (≈ 17.4 µM) | Neither of the two compounds was found to be genotoxic | 0.7 ± 0.1 |  |  |  |  |  |  | 1.56 µg/mL (≈ 2.17 µM) |  |  | 6.25 µg/mL (≈ 8.68 µM)

— article PMC4696656, “Insights into the Mechanism of Action of Bactericidal Lipophosphonoxins” (PLoS ONE, 2015)
